# Assays:
# [1] = system: SKBR3 cells; assay: Control SKBR3 cells with ERE-Luc plasmid but not transfected with ER; format: cell-based, human; details: E2 10 nM, 24 h
# Procedure: SKBR3 cells were transfected with 0 .2 µ g ERE-Luc plasmid, 0.05 µ g of either pcDNA3ERα or pcDNA3ERβ, and 0.55 µg pcDNA3.1+. Control SKBR3 cells were transfected with 0.2 µ g ERE-Luc plasmid and 0.6 µ g pcDNA3.1+. Cells were treated for 24 h, lysed, and luciferase activity assessed. Luciferaseexpression was normalized using the Bradford assay.
# [2] = system: ERα or ERβ; details: E2 standard set as 100%; cited from earlier work
# [3] = target: T1, human ERβ (Homo sapiens, UniProt Q92731); assay: SKBR3 cells transiently transfected with ERβ and ER-responsive luciferase reporter; format: cell-based; details: for maximum luciferase induction, percent of maximum E2 activity: ERβ-transfected SKBR3, 10 nM E2 = 100%, normalized to protein
# T1 construct: human ERβ segment (530 aa, GenBank: AF051427.1); expressed in transfected cells; host or cells: SKBR3 (human breast carcinoma), transient transfection with ERβ/pcDNA3
# T1 sequence (Q92731 whole entry): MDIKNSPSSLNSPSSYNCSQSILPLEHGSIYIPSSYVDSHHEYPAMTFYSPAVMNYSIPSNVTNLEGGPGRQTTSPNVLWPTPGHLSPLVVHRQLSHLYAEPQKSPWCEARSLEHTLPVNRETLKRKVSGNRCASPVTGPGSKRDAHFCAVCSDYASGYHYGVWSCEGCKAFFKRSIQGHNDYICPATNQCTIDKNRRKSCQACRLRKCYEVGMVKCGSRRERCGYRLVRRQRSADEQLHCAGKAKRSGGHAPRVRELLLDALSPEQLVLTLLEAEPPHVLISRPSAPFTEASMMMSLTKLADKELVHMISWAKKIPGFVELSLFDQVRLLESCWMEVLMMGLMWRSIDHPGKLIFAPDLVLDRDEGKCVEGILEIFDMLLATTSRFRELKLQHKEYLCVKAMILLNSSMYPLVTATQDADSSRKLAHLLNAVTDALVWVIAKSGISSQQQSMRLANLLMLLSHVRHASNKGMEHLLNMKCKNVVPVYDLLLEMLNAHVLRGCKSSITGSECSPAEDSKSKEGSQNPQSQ
# Excerpt: (§1) The human ERβ expression plasmid (ERβ/pcDNA3) was constructed by PCR amplification of the human ERβ segment (530 aa, GenBank: AF051427.1) out of pCMV5 (kindly provided by Dr. John Katzenellenbogen, University of Illinois) and insertion of this fragment at BstEII and AflII restriction sites into the modified pcDNA3 construct, which was previously described. […] The human ERα expression plasmid, pcDNA3.1 + ERα, was purchased from Missouri S&T cDNA Resouce Center and was confirmed by restriction digestion. […] The generated plasmids were verified by DNA sequencing. Plasmids ERβ/pcDNA3 and ERα/pcDNA3were used as templates for in vitro expression (Additional file 2); ERα and ERβ were synthesized in vitro using the TNT Quick coupled transcription/translation rabbit reticulocyte lysate system (Promega). Briefly, ^35S-Radiolabeled hERα and hERβ were synthesized in separate reactions in vitro according to manufacturer’s protocol, denatured, and subjected to SDS-polyacrylamide gel electrophoresis, and the kDa of each protein was determined by autoradiography of the dried gel.
# (§2) Protein concentration was determined using the Bradford assay.
# (§3) Luciferase activity was expressed as relative light units (RLU) for assays using BG1Luc4E2 cells or as a ratio of luciferase RLU/mg protein for assays using SKBR3 cells. Protein amount (mg) was calculated from concentrations obtained in Bradford assay and the respective luciferase RLU was divided by mg protein to obtain luciferase RLU/mg protein. Average luciferase RLU (or luciferase RLU/mg protein) values were calculated from triplicate wells. Solvent luciferase RLU (or luciferase RLU/mg) was subtracted from luciferase RLU induced by chemical. In the case of extract and fractions, luciferase RLU induced by method blank was subtracted from luciferase RLU induced by extract or fraction. […] The Student’s t-test (2-tailed, paired) was used to establish significant difference of chemical/fraction/extract activity from that of solvent or method blank (p ≤ 0.05), and dose–response curves were fitted using a sigmoidal Hill’s 4-parameter algorithm (SigmaPlot v.9.0, Systat, San Jose, CA), as described previously. Half-maximal inductions of each treatment (EC50) were determined as described in [34].
# [4] = system: SKBR3 cells; assay: Toxicity observed in transfected SKBR3 cells (protein concentration, RLU, cell death)
# Procedure: SKBR3 cells were grown and maintained in high-glucose DMEM and 10% premium FBS. SKBR3 cells were cultured in phenol red-free medium supplemented with 10% charcoal-stripped FBS for 48 h before transfection and seeded in 24-well plates at a density of 300,000 cells/mL. 24 h after plating, cells were transfected for 24 h using Lipofectamine reagent (2 μL/well) according to the manufacturer’s recommendations (0.2 μg of ER-responsive reporter plasmid pGudLuc7ere [32] and 0.05 μg receptor plasmids (ERα/pcDNA3 or ERβ/pcDNA3) or empty vector (pcDNA3.1+) per well, normalizing μg DNA/well to 0.8 μg/well with empty vector). 24 h post-transfection, SKBR3 cells were incubated for 24 h with chemical, the cells harvested, and both protein concentration and luciferase activity determined. Protein concentration was determined using the Bradford assay [35]. Briefly, 5 μL/well SKBR3 lysate was incubated for 5 min at room temperature with 1X Bradford Reagent (200 μL). Protein concentration was calibrated against a standard curve of bovine serum albumin (0.05-0.5 mg/mL) on the same plate and was measured as mg protein/mL using a PhosphorImager (Molecular Dynamics).
# [5] = system: ERα or ERβ; details: greater in ERβ; cited from earlier work
# [6] = target: T2, estrogen receptor (Homo sapiens, UniProt P03372); assay: BG1Luc4E2 stably transfected estrogen-responsive luciferase reporter bioassay; format: cell-based
# T2 construct: the BG1Luc4E2 cell line endogenously expresses ERα; endogenous in cells; host or cells: BG1Luc4E2 (human ovarian carcinoma, stably transfected ERE-luciferase reporter)
# T2 sequence (P03372 whole entry): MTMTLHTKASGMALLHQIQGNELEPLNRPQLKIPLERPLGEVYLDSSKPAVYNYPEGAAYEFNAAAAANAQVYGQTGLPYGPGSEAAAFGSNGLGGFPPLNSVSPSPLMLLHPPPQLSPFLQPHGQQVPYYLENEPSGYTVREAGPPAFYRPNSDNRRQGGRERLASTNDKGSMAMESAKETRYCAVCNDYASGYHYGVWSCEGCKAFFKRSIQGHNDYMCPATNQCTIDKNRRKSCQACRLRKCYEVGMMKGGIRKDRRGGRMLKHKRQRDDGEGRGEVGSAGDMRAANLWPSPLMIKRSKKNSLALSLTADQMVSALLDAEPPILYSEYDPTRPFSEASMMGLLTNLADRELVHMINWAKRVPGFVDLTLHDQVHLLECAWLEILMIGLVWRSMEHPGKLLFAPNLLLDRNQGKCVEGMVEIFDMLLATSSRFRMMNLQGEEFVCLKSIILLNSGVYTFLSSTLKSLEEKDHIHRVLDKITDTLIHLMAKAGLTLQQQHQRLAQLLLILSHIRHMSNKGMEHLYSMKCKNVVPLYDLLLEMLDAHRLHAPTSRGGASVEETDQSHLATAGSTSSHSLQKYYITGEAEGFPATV
# Procedure: as §2, §3
# [7] = system: BG1Luc4E2 cells; assay: Cell death/toxicity observed in BG1Luc4E2 bioassay; format: cell-based, human
# Procedure: Method blank treatments were included if applicable. […] Protein concentration was determined using the Bradford assay.
# [8] = target: human ERα (Homo sapiens, UniProt P03372); assay: SKBR3 cells transiently transfected with ERα and ER-responsive luciferase reporter; format: cell-based
# human ERα, sequence (P03372 311-547): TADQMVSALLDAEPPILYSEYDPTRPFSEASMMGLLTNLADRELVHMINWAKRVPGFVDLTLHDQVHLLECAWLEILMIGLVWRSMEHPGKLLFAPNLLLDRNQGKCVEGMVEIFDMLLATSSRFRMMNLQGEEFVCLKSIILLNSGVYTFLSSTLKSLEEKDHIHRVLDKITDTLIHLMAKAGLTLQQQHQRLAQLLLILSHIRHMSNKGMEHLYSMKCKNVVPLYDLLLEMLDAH
# Excerpt: as §1, §2
# Luciferase activity was expressed as relative light units (RLU) for assays using BG1Luc4E2 cells or as a ratio of luciferase RLU/mg protein for assays using SKBR3 cells. Protein amount (mg) was calculated from concentrations obtained in Bradford assay and the respective luciferase RLU was divided by mg protein to obtain luciferase RLU/mg protein. Average luciferase RLU (or luciferase RLU/mg protein) values were calculated from triplicate wells. Solvent luciferase RLU (or luciferase RLU/mg) was subtracted from luciferase RLU induced by chemical. In the case of extract and fractions, luciferase RLU induced by method blank was subtracted from luciferase RLU induced by extract or fraction. […] Half-maximal inductions of each treatment (EC50) were determined as described in [34].
structure (smiles),measurement,setting,value
"C[C@]12CC[C@@H]3c4ccc(O)cc4CC[C@H]3[C@@H]1CC[C@@H]2O [E2, 17-β-estradiol]",luciferase expression in cells not transfected with ER,[1],do not express luciferase
COc1ccc(-c2coc3cc(O)cc(O)c3c2=O)cc1 [biochanin A],"relative binding affinity, ERβ versus ERα",[2],greater to ERβ than to ERα
O=c1oc2cc(O)ccc2c2oc3cc(O)ccc3c12 [coumestrol],"relative binding affinity, ERβ versus ERα",[2],greater to ERβ than to ERα
O=c1c(-c2ccc(O)cc2)coc2cc(O)ccc12 [diadzein],"relative binding affinity, ERβ versus ERα",[2],greater to ERβ than to ERα
"Cc1cc(O)c2c(c1)C(=O)c1cc(O)cc(O)c1C2=O [emodin, reference compound]","maximum luciferase induction, percent of maximum E2 activity",[3],127 ± 26%
same,EC50,"[3]; SKBR3 (ERβ), luciferase, 24 h, read-out: EC50 (concentration for half-maximal induction)",3 µM
same,concentrations toxic to SKBR3 cells,[4],greater than 10 μM
same,REP in ERβ-transfected versus ERα-transfected yeast cells,[5],approximately one order of magnitude
"O=c1c(-c2ccc(O)cc2)coc2cc(O)cc(O)c12 [genistein, reference compound]",concentrations resulting in significantly decreased RLU,[4],greater than 10 μM
"O=C(C=Cc1ccc(O)cc1)OC1Cc2c(O)cc(O)cc2OC1c1ccc(O)cc1 [rhodoeosein, 2,3-cis-(2R,3R)-(−)-epiafzelechin-3-O-p-coumarate]","maximum luciferase induction, percent of maximum E2 activity",[3],80 ± 10%
same,REP (relative estrogenic potency = EC50 E2/EC50 chemical),[3]; SKBR3 (ERβ),1.5 × 10^-5
same,concentrations resulting in significantly decreased protein concentration,[4],greater than 100 μM
same,effect on cells at 0.316 mM,[4],caused cell death
same,EC50,"[6]; BG1Luc4E2 (ovarian), luciferase, 24 h, read-out: EC50 (concentration for half-maximal induction)",120 µM
same,concentrations resulting in no luciferase induction,[6]; BG1Luc4E2 cells,below 31.6 μM
same,orders of magnitude weaker in potency than the E2 standard,[6]; BG1Luc4E2 cells,approximately 7 orders of magnitude
same,"maximum luciferase induction, percent of maximum E2 activity","[6]; BG1Luc4E2 cells, 1 nM E2 = 100%, 24 h",> 400%
same,"luciferase induction, percent of maximum E2 activity","[6]; BG1Luc4E2 cells, 119 μM and 158 μM, superinduction",> 400%
same,concentrations that killed BG1Luc4E2 cells,[7]; 24 h incubation,≥ 250 µM
same,"effect on cells at 0.25, 0.316, and 1 mM",[7]; BG1Luc4E2 cells,caused cell death
same,toxicity at 197 μM,"[7]; BG1Luc4E2 cells, 197 μM",no toxicity
same,"maximum luciferase induction, percent of maximum E2 activity","[8]; ERα-transfected SKBR3, 10 nM E2 = 100%, normalized to protein",78 ± 8%
same,REP (relative estrogenic potency = EC50 E2/EC50 chemical),[8]; SKBR3 (ERα),3.4 × 10^-6
same,EC50,"[8]; SKBR3 (ERα), luciferase, 24 h, read-out: EC50 (concentration for half-maximal induction)",5.8 µM

# From PMC3695784, “2,3-cis-2R,3R-(−)-epiafzelechin-3-O-p-coumarate, a novel flavan-3-ol isolated from Fallopia convolvulus seed, is an estrogen receptor agonist in human cell lines” (BMC Complementary and Alternative Medicine, 2013)
